# Experimental data: US12509444B2, “Compounds and methods for CD73 modulation and indications therefor” (Plexxikon Inc., priority 2019, dated 2025)
# What was measured:
# human CD73 = target: T1, human CD73 (Homo sapiens, UniProt P21589); assay: Inhibitor activity against CD73 in cell based assay (CD73 expressing CHO-K1 cells); conditions: CHO-K1 cells expressing human CD73, 150 μM AMP, 4 hours of incubation; read-out: CHO-K1 CELL VARIANT: CD73 IC50
# T1 construct: expressed in transfected cells
# T1 sequence (P21589 27-549): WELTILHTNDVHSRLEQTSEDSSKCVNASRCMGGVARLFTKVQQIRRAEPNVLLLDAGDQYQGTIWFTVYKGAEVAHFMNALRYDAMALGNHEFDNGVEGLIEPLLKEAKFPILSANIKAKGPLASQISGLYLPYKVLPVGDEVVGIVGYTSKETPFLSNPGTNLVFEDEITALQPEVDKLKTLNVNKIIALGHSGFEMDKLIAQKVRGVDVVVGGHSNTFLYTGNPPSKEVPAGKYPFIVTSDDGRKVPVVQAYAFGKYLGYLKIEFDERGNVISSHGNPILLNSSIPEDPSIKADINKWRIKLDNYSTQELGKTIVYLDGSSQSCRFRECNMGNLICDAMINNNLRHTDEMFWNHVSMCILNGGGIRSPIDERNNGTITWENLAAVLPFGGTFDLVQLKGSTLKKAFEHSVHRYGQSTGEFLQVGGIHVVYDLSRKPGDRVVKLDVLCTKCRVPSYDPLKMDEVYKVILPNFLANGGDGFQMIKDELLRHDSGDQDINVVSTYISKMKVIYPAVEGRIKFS
# Experimental: Determine Inhibitor Activity Against CD73 in Cell Based Assay
# CD73 expressing CHO-K1 cell clones were generated upon stable transfection of a plasmid expressing human CD73 under the control of CMV promoter. Cells were selected in Ham's F-12K (Kaighn's) media supplemented with 10% fetal bovine serum and 1 mg/ml G418 at 37° C. in a humidified incubator supplied with 5% CO2. The assays were performed as follows. Cells were seeded in a 96 well plate in 50 μL of culture media at a density of 1×10^4 per well. Compound at a maximal concentration of 5 mM was serially diluted 1:3 in DMSO for a total of 8 point titration. A 2 μL aliquot of each dilution point was added to 248 μL culture media and 25 µL was added to each well, providing 10 μM compound at the maximum concentration point. AMP was diluted in culture media and 25 μL was added to each well with a final concentration of 150 μM. 4 wells containing 0.2% DMSO treated cells and AMP served as high controls and 4 wells containing media only with 0.2% DMSO and AMP served as low controls. After 4 hours of incubation, 20 μL of the supernatant was transferred to a 384 well plate. AMP level in supernatant was measured indirectly by adding 5 μL of CellTiter-Glo® 2.0 reagent and 5 μL of ATP with a final concentration of 1 μM. Following incubation of plate at room temperature for 30 minutes, luminescent signal was read on a Tecan plate reader. The percentage inhibition at individual concentrations relative to high and low controls was calculated. The data were analyzed by using nonlinear regression to generate IC50 values.
# [1] = target: T2, Human CD73 (amino acid residues 27-549) (Homo sapiens, UniProt P21589); assay: CD73 enzymatic assay (luciferase-based indirect assay, CellTiter-Glo); assay type: biochemical; conditions: 0.4 nM CD73, 150 μM AMP, 1 hour at room temperature
# T2 construct: Human CD73 (amino acid residues 27-549); His tag (N); made in house; host or cells: E. coli
# T2 sequence (P21589 27-549): T1 sequence (P21589 27-549)
# Outline: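 Residual AMP inhibits luciferase, so luminescence reports CD73 turnover; read with CellTiter-Glo 2.0 plus 1 μM final ATP, 30 min. Reaction used 0.4 nM N-His CD73 (27-549, E. coli), 150 μM AMP, HEPES pH 7.4 with Tween 20, 1 h at room temperature. IC50 fitted by nonlinear regression.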
IC50 (human CD73),IC50 [1],SMILES
0.001 to 10 µM,0.001 to 10 µM,"CCN(C)C(=O)[C@H]1CC[C@H](NC(=O)O[C@@H]2CCN(c3cn[nH]c(=O)c3Cl)C2)CC1 [P-0193, (R)-1-(5-chloro-6-oxo-1,6-dihydropyridazin-4-yl)pyrrolidin-3-yl ((1r,4R)-4-(ethyl(methyl)carbamoyl)cyclohexyl)carbamate]"
0.001 to 10 µM,0.001 to 10 µM,"O=C(N[C@H]1CC[C@H](NS(=O)(=O)Cc2ccccc2)CC1)O[C@@H]1CCN(c2cn[nH]c(=O)c2Cl)C1 [P-0306, (R)-1-(5-chloro-6-oxo-1,6-dihydropyridazin-4-yl)pyrrolidin-3-yl ((1r,4R)-4-((phenylmethyl)sulfonamido)cyclohexyl)carbamate]"
0.001 to 10 µM,0.001 to 10 µM,"O=C(N[C@H]1CC[C@H](NS(=O)(=O)c2ccccc2)CC1)O[C@@H]1CCN(c2cn[nH]c(=O)c2Cl)C1 [P-0158, (R)-1-(5-chloro-6-oxo-1,6-dihydropyridazin-4-yl)pyrrolidin-3-yl ((1r,4R)-4-(phenylsulfonamido)cyclohexyl)carbamate]"
0.001 to 10 µM,0.001 to 10 µM,"NC(=O)N[C@H]1CC[C@H](NC(=O)O[C@@H]2CCN(c3cn[nH]c(=O)c3Cl)C2)CC1 [P-0156, (R)-1-(5-chloro-6-oxo-1,6-dihydropyridazin-4-yl)pyrrolidin-3-yl ((1r,4R)-4-ureidocyclohexyl)carbamate]"
0.001 to 10 µM,0.001 to 10 µM,"O=C(NC1CCCCC1)N[C@H]1CC[C@H](NC(=O)O[C@@H]2CCN(c3cn[nH]c(=O)c3Cl)C2)CC1 [P-0174, (R)-1-(5-chloro-6-oxo-1,6-dihydropyridazin-4-yl)pyrrolidin-3-yl ((1r,4R)-4-(3-cyclohexylureido)cyclohexyl) carbamate]"
0.001 to 10 µM,0.001 to 10 µM,"O=C(NC1CC1)N[C@H]1CC[C@H](NC(=O)O[C@@H]2CCN(c3cn[nH]c(=O)c3Cl)C2)CC1 [P-0271, (R)-1-(5-chloro-6-oxo-1,6-dihydropyridazin-4-yl)pyrrolidin-3-yl ((1r,4R)-4-(3-cyclopropylureido)cyclohexyl) carbamate]"
0.001 to 10 µM,0.001 to 10 µM,"O=C(Nc1ccc(F)cc1)N[C@H]1CC[C@H](NC(=O)O[C@@H]2CCN(c3cn[nH]c(=O)c3Cl)C2)CC1 [P-0178, (R)-1-(5-chloro-6-oxo-1,6-dihydropyridazin-4-yl)pyrrolidin-3-yl ((1r,4R)-4-(3-(4-fluorophenyl)ureido)cyclohexyl)carbamate]"
0.001 to 10 µM,0.001 to 10 µM,"O=C(N[C@H]1CC[C@@H](NC(=O)c2ccccc2)CC1)O[C@@H]1CCN(c2cn[nH]c(=O)c2Cl)C1 [P-0186, (R)-1-(5-chloro-6-oxo-1,6-dihydropyridazin-4-yl)pyrrolidin-3-yl ((1s,4S)-4-benzamidocyclohexyl) carbamate]"

# Continued, compound first:
SMILES,IC50 (human CD73),IC50 [1]
"Cn1ncc(N2CC[C@@H](OC(=O)N[C@H]3CC[C@H](NS(=O)(=O)c4ccccc4Br)CC3)C2)c(Cl)c1=O [P-0239, (R)-1-(5-chloro-1-methyl-6-oxo-1,6-dihydropyridazin-4-yl)pyrrolidin-3-yl ((1r,4R)-4-((2-bromophenyl)sulfonamido)cyclohexyl)carbamate]",0.001 to 10 µM,0.001 to 10 µM
"CN(C(=O)O[C@@H]1CCN(c2cn[nH]c(=O)c2Cl)C1)C1CCCCC1 [P-0099, (R)-1-(5-chloro-6-oxo-1,6-dihydropyridazin-4-yl)pyrrolidin-3-yl cyclohexyl(methyl)carbamate]",10 to 100 µM,0.001 to 10 µM
"N#CC1(NC(=O)OC2CCCCC2)CCN(c2cn[nH]c(=O)c2Cl)C1 (stereo not drawn) [P-0074, cyclohexyl (1-(5-chloro-6-oxo-1,6-dihydropyridazin-4-yl)-3-cyanopyrrolidin-3-yl)carbamate]",10 to 100 µM,0.001 to 10 µM
"O=C(NC12CC(F)(C1)C2)O[C@@H]1CCN(c2cn[nH]c(=O)c2Cl)C1 [P-0433, (R)-1-(5-chloro-6-oxo-1,6-dihydropyridazin-4-yl)pyrrolidin-3-yl (3-fluorobicyclo[1.1.1]pentan-1-yl)carbamate]",0.001 to 10 µM,0.001 to 10 µM
"O=C(Cn1ncc(N2CC[C@@H](OC(=O)NC3CCC(F)(F)CC3)C2)c(Cl)c1=O)NO [P-0430, (R)-1-(5-chloro-1-(2-(hydroxyamino)-2-oxoethyl)-6-oxo-1,6-dihydropyridazin-4-yl)pyrrolidin-3-yl (4,4-difluorocyclohexyl)carbamate]",10 to 100 µM,0.001 to 10 µM
"O=C(NC1CCCCC1)O[C@H]1CCN(c2cn[nH]c(=O)c2Cl)C1 [P-0021, (S)-1-(5-chloro-6-oxo-1,6-dihydropyridazin-4-yl)pyrrolidin-3-yl cyclohexylcarbamate]",10 to 100 µM,0.001 to 10 µM
"O=C(NC1CCN(C(=O)Cc2ccc(F)c(Cl)c2)CC1)O[C@@H]1CCN(c2cn[nH]c(=O)c2Cl)C1 [P-0445, (R)-1-(5-chloro-6-oxo-1,6-dihydropyridazin-4-yl)pyrrolidin-3-yl (1-(2-(3-chloro-4-fluorophenyl)acetyl)piperidin-4-yl)carbamate]",0.001 to 10 µM,0.001 to 10 µM
"NC(=O)N1CCC(NC(=O)O[C@@H]2CCN(c3cn[nH]c(=O)c3Cl)C2)CC1 [P-0149, (R)-1-(5-chloro-6-oxo-1,6-dihydropyridazin-4-yl)pyrrolidin-3-yl (1-carbamoylpiperidin-4-yl)carbamate]",0.001 to 10 µM,0.001 to 10 µM
"O=C(N[C@@H]1CCC[C@@H]1O)O[C@@H]1CCN(c2cn[nH]c(=O)c2Cl)C1 [P-0481, (R)-1-(5-chloro-6-oxo-1,6-dihydropyridazin-4-yl)pyrrolidin-3-yl ((1R,2S)-2-hydroxycyclopentyl)carbamate]",0.001 to 10 µM,0.001 to 10 µM
"CO[C@H]1CC[C@@H](NC(=O)O[C@@H]2CCN(c3cn[nH]c(=O)c3Cl)C2)CC1 [P-0231, (R)-1-(5-chloro-6-oxo-1,6-dihydropyridazin-4-yl)pyrrolidin-3-yl ((1s,4S)-4-methoxycyclohexyl)carbamate]",0.001 to 10 µM,0.001 to 10 µM
"O=C(NC1CCCC1(F)F)O[C@@H]1CCN(c2cn[nH]c(=O)c2Cl)C1 (stereo partly drawn) [P-0386, (R)-1-(5-chloro-6-oxo-1,6-dihydropyridazin-4-yl)pyrrolidin-3-yl (2,2-difluorocyclopentyl)carbamate]",0.001 to 10 µM,0.001 to 10 µM
"O=C(NC12CC(C1)C2)O[C@@H]1CCN(c2cn[nH]c(=O)c2Cl)C1 [P-0428, (R)-1-(5-chloro-6-oxo-1,6-dihydropyridazin-4-yl)pyrrolidin-3-yl bicyclo[1.1.1]pentan-1-ylcarbamate]",0.001 to 10 µM,0.001 to 10 µM
"Cc1c(N2CC[C@@H](NC(=O)NC3CCCCC3)C2)cn[nH]c1=O [P-0059, (R)-1-cyclohexyl-3-(1-(5-methyl-6-oxo-1,6-dihydropyridazin-4-yl)pyrrolidin-3-yl)urea]",10 to 100 µM,0.001 to 10 µM
"O=C(Nc1ccccc1)O[C@@H]1CCN(c2cn[nH]c(=O)c2Cl)C1 [P-0093, (R)-1-(5-chloro-6-oxo-1,6-dihydropyridazin-4-yl)pyrrolidin-3-yl phenylcarbamate]",0.001 to 10 µM,0.001 to 10 µM
"CS(=O)(=O)N1CC[C@H](NC(=O)O[C@@H]2CCN(c3cn[nH]c(=O)c3Cl)C2)C1 [P-0341, (R)-1-(5-chloro-6-oxo-1,6-dihydropyridazin-4-yl)pyrrolidin-3-yl ((S)-1-(methylsulfonyl)pyrrolidin-3-yl)carbamate]",10 to 100 µM,0.001 to 10 µM
"O=C(NC1CC2CCC1O2)O[C@@H]1CCN(c2cnn(CCO)c(=O)c2Cl)C1 (stereo partly drawn) [P-0451, (R)-1-(5-chloro-1-(2-hydroxyethyl)-6-oxo-1,6-dihydropyridazin-4-yl)pyrrolidin-3-yl (7-oxabicyclo[2.2.1]heptan-2-yl)carbamate]",0.001 to 10 µM,0.001 to 10 µM
